Source: patent publication US20250179061A1 (SIRONAX LTD., priority 2022, published 2025)
pIC50: −log10 of the molar value. Like-named read-outs stand apart in the source and are kept apart here.

Test system: HT-29 cells
Test: HT-29 necroptosis cell viability assay (TNF-α/SMAC mimetic/zVAD-FMK, CellTiter-Glo)
Type: cell-based
Details: Homo sapiens, read-out: Activity
Method in brief: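 Necroptosis was triggered by TNF-α (10 ng/ml), SMAC mimetic (6 μM) and zVAD-FMK (10 μM) in serum-free medium during 20 h compound exposure (10 concentrations, threefold steps) of HT-29 cells. IC50 from duplicate dose-responses uses CellTiter-Glo ATP luminescence as viability read-out.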

[1] = HT-29, HT-29 necroptosis cell viability assay, class symbols for IC50
[2] = HT-29 cells stimulated with TNF-α (10 ng/ml), SMAC mimetic (6 μM) and zVAD-FMK (10 μM), 20 hours, CellTiter-Glo ATP luminescence, geometric mean IC50 from 10 points
[3] = HT-29, HT-29 necroptosis cell viability, IC50 class symbols

Compound	pIC50 [1]	pIC50 [3]	further results
Cc1nc(C(F)(F)C(=O)O)sc1Oc1ccc(-n2ncn(Cc3c(F)cccc3F)c2=O)cc1F [Example 170, 2-(5-(4-(4-(2,6-difluorobenzyl)-5-oxo-4,5-dihydro-1H-1,2,4-triazol-1-yl)-2-fluorophenoxy)-4-methylthiazol-2-yl)-2,2-difluoroacetic acid]	6.00 to 7.00	–	–
Cc1ncsc1Oc1ccc(-n2ncn(Cc3c(F)cccc3F)c2=O)cc1F [Example 2, 4-(2,6-difluorobenzyl)-2-(3-fluoro-4-((4-methylthiazol-5-yl)oxy)phenyl)-2,4-dihydro-3H-1,2,4-triazol-3-one]	–	–	pIC50 [2]: > 7.00
CC1(C#N)CCN(c2cc(Oc3ccc(-n4ncn(Cc5c(F)cccc5F)c4=O)cc3F)c(Cl)cn2)C1 (centres unmarked) [Example 393, 1-(5-chloro-4-(4-(4-(2,6-difluorobenzyl)-5-oxo-4,5-dihydro-1H-1,2,4-triazol-1-yl)-2-fluorophenoxy)pyridin-2-yl)-3-methylpyrrolidine-3-carbonitrile]	–	> 7.00	–
Cc1cn(Cc2ccc(-n3nc4n(c3=O)C(c3ccccc3)CC4)cc2F)c(C)n1 (centres unmarked) [Example 213, 2-(4-((2,4-dimethyl-1H-imidazol-1-yl)methyl)-3-fluorophenyl)-5-phenyl-2,5,6,7-tetrahydro-3H-pyrrolo[2,1-c][1,2,4]triazol-3-one]	> 7.00	–	–
C[C@H]1C[C@H](N)CN1c1cc(Oc2ccc(-n3ncn(Cc4c(F)cccc4F)c3=O)cc2)ccn1 [Example 316, 2-(4-((2-((2S,4S)-4-amino-2-methylpyrrolidin-1-yl)pyridin-4-yl)oxy)phenyl)-4-(2,6-difluorobenzyl)-2,4-dihydro-3H-1,2,4-triazol-3-one]	–	> 7.00	–
O=c1n(Cc2c(F)cccc2F)cnn1-c1ccc(Oc2cc(C3=CCOCC3)ncc2F)c(F)c1 [Example 548, 4-(2,6-difluorobenzyl)-2-(4-((2-(3,6-dihydro-2H-pyran-4-yl)-5-fluoropyridin-4-yl)oxy)-3-fluorophenyl)-2,4-dihydro-3H-1,2,4-triazol-3-one]	> 7.00	–	–
CC1(N)CN(c2cc(Oc3ccc(-n4ncn(Cc5c(F)cccc5F)c4=O)cc3F)c(C#N)cn2)C1 [Example 396, 6-(3-amino-3-methylazetidin-1-yl)-4-(4-(4-(2,6-difluorobenzyl)-5-oxo-4,5-dihydro-1H-1,2,4-triazol-1-yl)-2-fluorophenoxy)nicotinonitrile]	–	6.00 to 7.00	–
CCOC(=O)c1nc(C)nn1Cc1ccc(-n2ncn(Cc3c(F)cccc3F)c2=O)cc1F [Example 201]	6.00 to 7.00	–	–
Cc1nc(C2(N)COC2)sc1Oc1ccc(-n2ncn(Cc3c(F)cccc3F)c2=O)cc1F [Example 614, 2-(4-((2-(3-aminooxetan-3-yl)-4-methylthiazol-5-yl)oxy)-3-fluorophenyl)-4-(2,6-difluorobenzyl)-2,4-dihydro-3H-1,2,4-triazol-3-one]	> 7.00	–	–
O=c1n(Cc2c(F)cccc2F)cnn1-c1ccc(Oc2ccnc(N3CCC34CNC4)c2)cc1 [Example 379, 2-(4-((2-(1,6-diazaspiro[3.3]heptan-1-yl)pyridin-4-yl)oxy)phenyl)-4-(2,6-difluorobenzyl)-2,4-dihydro-3H-1,2,4-triazol-3-one]	–	6.00 to 7.00	–
COC1(C#N)CN(c2cc(Oc3ccc(-n4ncn(Cc5c(F)cccc5F)c4=O)cc3)ccn2)C1 [Example 366, 1-(4-(4-(4-(2,6-difluorobenzyl)-5-oxo-4,5-dihydro-1H-1,2,4-triazol-1-yl)phenoxy)pyridin-2-yl)-3-methoxyazetidine-3-carbonitrile]	–	> 7.00	–
Cc1nc(N2CC(C#N)C2)sc1Oc1ccc(-n2ncn(Cc3c(F)cccc3F)c2=O)cc1 [Example 53, 1-(5-(4-(4-(2,6-difluorobenzyl)-5-oxo-4,5-dihydro-1H-1,2,4-triazol-1-yl)phenoxy)-4-methylthiazol-2-yl)azetidine-3-carbonitrile]	–	–	pIC50 [2]: > 7.00
Cc1nc(C2CCN(C)C2)sc1Oc1ccc(-n2ncn(Cc3c(F)cccc3F)c2=O)cc1 (centres unmarked) [Example 554, 4-(2,6-difluorobenzyl)-2-(4-((4-methyl-2-(1-methylpyrrolidin-3-yl)thiazol-5-yl)oxy)phenyl)-2,4-dihydro-3H-1,2,4-triazol-3-one]	> 7.00	–	–
Cc1nc(C)c(Oc2ccc(-n3ncn(Cc4c(F)cccc4F)c3=O)cc2)s1 [Example 97, 4-(2,6-difluorobenzyl)-2-(4-((2,4-dimethylthiazol-5-yl)oxy)phenyl)-2,4-dihydro-3H-1,2,4-triazol-3-one]	–	–	pIC50 [2]: > 7.00
O=c1n(Cc2c(F)cccc2F)cnn1-c1ccc(Oc2ccnc(N3CC4(CCOCC4)C3)c2)cc1 [Example 339, 2-(4-((2-(7-oxa-2-azaspiro[3.5]nonan-2-yl)pyridin-4-yl)oxy)phenyl)-4-(2,6-difluorobenzyl)-2,4-dihydro-3H-1,2,4-triazol-3-one]	–	> 7.00	–
COC1(C)CN(c2nccc(Oc3ccc(-n4ncn(Cc5c(F)cccc5F)c4=O)cc3Cl)c2F)C1 [Example 497, 2-(3-chloro-4-((3-fluoro-2-(3-methoxy-3-methylazetidin-1-yl)pyridin-4-yl)oxy)phenyl)-4-(2,6-difluorobenzyl)-2,4-dihydro-3H-1,2,4-triazol-3-one]	> 7.00	–	–
Cc1nc(C(N)=O)sc1Oc1ccc(-n2nc3n(c2=O)C(c2ccccc2)CC3)cc1F (centres unmarked) [Example 13, 5-(2-fluoro-4-(3-oxo-5-phenyl-6,7-dihydro-3H-pyrrolo[2,1-c][1,2,4]triazol-2(5H)-yl)phenoxy)-4-methylthiazole-2-carboxamide]	–	–	pIC50 [2]: > 7.00
Cc1nc(C=C2COC2)sc1Oc1ccc(-n2ncn(Cc3c(F)cccc3F)c2=O)cc1 [Example 547, 4-(2,6-difluorobenzyl)-2-(4-((4-methyl-2-(oxetan-3-ylidenemethyl)thiazol-5-yl)oxy)phenyl)-2,4-dihydro-3H-1,2,4-triazol-3-one]	> 7.00	–	–
CCOC1CN(c2nccc(Oc3ccc(-n4ncn(Cc5c(F)cccc5F)c4=O)cc3)c2C)C1 [Example 236, 4-(2,6-difluorobenzyl)-2-(4-((2-(3-ethoxyazetidin-1-yl)-3-methylpyridin-4-yl)oxy)phenyl)-2,4-dihydro-3H-1,2,4-triazol-3-one]	–	> 7.00	–
CN(C)C1(C)CN(c2cc(Oc3ccc(-n4ncn(Cc5c(F)cccc5F)c4=O)cc3F)c(F)cn2)C1 [Example 371, 4-(2,6-difluorobenzyl)-2-(4-((2-(3-(dimethylamino)-3-methylazetidin-1-yl)-5-fluoropyridin-4-yl)oxy)-3-fluorophenyl)-2,4-dihydro-3H-1,2,4-triazol-3-one]	–	6.00 to 7.00	–
CC(C)(C)OC(=O)NC[C@H]1CCN1c1cc(Oc2ccc(-n3ncn(Cc4c(F)cccc4F)c3=O)cc2F)c(F)cn1 [Example 373, tert-butyl (R)-((1-(4-(4-(4-(2,6-difluorobenzyl)-5-oxo-4,5-dihydro-1H-1,2,4-triazol-1-yl)-2-fluorophenoxy)-5-fluoropyridin-2-yl)azetidin-2-yl)methyl)carbamate]	–	> 7.00	–
O=c1n(Cc2c(F)cccc2F)cnn1-c1ccc(S(=O)(=O)c2ccnc(N3CCC3)c2)cc1 [Example 350, 2-(4-((2-(azetidin-1-yl)pyridin-4-yl)sulfonyl)phenyl)-4-(2,6-difluorobenzyl)-2,4-dihydro-3H-1,2,4-triazol-3-one]	–	> 7.00	–
CCOC1CN(c2cc(Oc3ccc(-n4ncn(Cc5c(F)cccc5F)c4=O)cc3Cl)c(F)cn2)C1 [Example 495, 2-(3-chloro-4-((2-(3-ethoxyazetidin-1-yl)-5-fluoropyridin-4-yl)oxy)phenyl)-4-(2,6-difluorobenzyl)-2,4-dihydro-3H-1,2,4-triazol-3-one]	> 7.00	–	–
